Measured values: ChEMBL document CHEMBL3351422, “Discovery of N-substituted 7-azaindoline derivatives as potent, orally available M1 and M4 muscarinic acetylcholine receptors selective agonists” (Bioorg Med Chem Lett, 2014)

Legend:
[1] = biological target: Glutamate NMDA receptor (Rattus norvegicus) (UniProt P35439+Q00959+Q00960+Q00961+Q62645+Q8VHN2+Q9R1M7); assay: Inhibition of rat NMDA receptor agonist binding site at 3 uM by radioligand binding assay; assay type: protein-complex assay
[2] = biological target: L-type calcium channel, dihydropyridine binding site (Rattus norvegicus, UniProt P22002+P27732+Q02485); assay: Inhibition of rat L-type calcium channel dihydropyridine binding site at 3 uM by radioligand binding assay; assay type: protein assay
[3] = biological target: Somatostatin receptor type 4 (Homo sapiens) (UniProt P31391); assay: Inhibition of human SST4 receptor at 3 uM by radioligand binding assay
[4] = biological target: Adenosine receptor A2a (Homo sapiens) (UniProt P29274); assay: Inhibition of human adenosine A2A receptor at 3 uM by radioligand binding assay
[5] = Half life in rat at 0.25 mg/kg, iv and 2.5 mg/kg, po; assay type: ADME, organism-based; settings: in vivo
[6] = biological target: T1, Muscarinic acetylcholine receptor M1 (Homo sapiens) (UniProt P11229); assay: Intrinsic activity at muscarinic M1 receptor (unknown origin) by calcium mobilization assay; assay type: functional
T1 sequence (whole entry): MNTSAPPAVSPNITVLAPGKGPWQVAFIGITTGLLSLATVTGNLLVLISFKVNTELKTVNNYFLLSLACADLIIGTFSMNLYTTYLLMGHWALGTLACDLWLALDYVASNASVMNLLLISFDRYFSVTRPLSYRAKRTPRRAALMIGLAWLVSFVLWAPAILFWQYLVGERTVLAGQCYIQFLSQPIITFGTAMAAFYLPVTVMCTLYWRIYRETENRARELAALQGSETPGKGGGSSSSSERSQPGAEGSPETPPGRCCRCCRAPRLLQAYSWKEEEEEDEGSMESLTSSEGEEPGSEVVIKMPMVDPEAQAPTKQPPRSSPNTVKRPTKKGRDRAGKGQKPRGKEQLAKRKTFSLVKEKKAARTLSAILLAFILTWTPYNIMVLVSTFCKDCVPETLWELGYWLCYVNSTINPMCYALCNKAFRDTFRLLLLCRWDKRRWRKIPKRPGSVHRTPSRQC

[7] = biological target: T2, Muscarinic acetylcholine receptor M4 (Homo sapiens) (UniProt P08173); assay: Agonist activity at muscarinic M4 receptor (unknown origin) at 0.3 uM by calcium mobilization assay; assay type: functional
T2 sequence (whole entry): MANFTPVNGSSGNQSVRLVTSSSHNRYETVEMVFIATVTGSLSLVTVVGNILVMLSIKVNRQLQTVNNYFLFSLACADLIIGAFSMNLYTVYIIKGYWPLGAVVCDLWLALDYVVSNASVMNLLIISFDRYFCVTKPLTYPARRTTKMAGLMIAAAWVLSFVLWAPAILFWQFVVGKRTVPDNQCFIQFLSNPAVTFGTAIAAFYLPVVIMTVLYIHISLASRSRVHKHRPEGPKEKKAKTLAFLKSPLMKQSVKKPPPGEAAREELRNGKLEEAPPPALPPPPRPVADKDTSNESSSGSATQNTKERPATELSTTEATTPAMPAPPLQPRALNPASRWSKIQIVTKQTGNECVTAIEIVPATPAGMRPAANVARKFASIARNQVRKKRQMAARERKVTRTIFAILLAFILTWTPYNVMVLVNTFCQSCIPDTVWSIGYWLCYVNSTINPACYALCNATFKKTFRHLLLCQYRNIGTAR

[8] = biological target: Neuronal acetylcholine receptor subunit alpha-7 (Rattus norvegicus) (UniProt Q05941); assay: Inhibition of rat nAChR alpha7 at 3 uM by methyllycaconitine binding assay
[9] = tested on: Rattus norvegicus; assay: Antipsychotic-like effect in po dosed rat assessed as methamphetamine-induced locomotor hyperactivity; assay type: functional
[10] = species on record: Rattus norvegicus; assay: Inhibition of rat GABAA central type receptor flunitrazepam binding site at 3 uM by radioligand binding assay
[11] = biological target: Voltage-gated inwardly rectifying potassium channel KCNH2 (Homo sapiens, UniProt Q12809); assay: Inhibition of human ERG channel
[12] = biological target: T2, Muscarinic acetylcholine receptor M4 (Homo sapiens); assay: Intrinsic activity at muscarinic M4 receptor (unknown origin) by calcium mobilization assay; assay type: functional
[13] = biological target: Muscarinic acetylcholine receptor M1 (Homo sapiens, UniProt P11229); assay: Agonist activity at muscarinic M1 receptor (unknown origin) by calcium mobilization assay; assay type: functional
[14] = biological target: Glucocorticoid receptor (Homo sapiens) (UniProt P04150); assay: Inhibition of human glucocortlicoid receptor at 3 uM by radioligand binding assay
[15] = biological target: Histamine H2 receptor (Homo sapiens) (UniProt P25021); assay: Inhibition of human histamine H2 receptor at 3 uM by radioligand binding assay
[16] = biological target: 5-hydroxytryptamine receptor 2B (Homo sapiens) (UniProt P41595); assay: Inhibition of human 5-HT2B receptor at 3 uM by radioligand binding assay
[17] = biological target: cAMP and cAMP-inhibited cGMP 3',5'-cyclic phosphodiesterase 10A (Homo sapiens) (UniProt Q9Y233); assay: Inhibition of human PDE10A1 at 3 uM by radioligand binding assay
[18] = species on record: Rattus norvegicus; assay: Inhibition of rat purinergic P2Y receptor at 3 uM by radioligand binding assay
[19] = biological target: T1, Muscarinic acetylcholine receptor M1 (Homo sapiens); assay: Agonist activity at muscarinic M1 receptor (unknown origin) at 0.3 uM by calcium mobilization assay; assay type: functional
[20] = species on record: Rattus norvegicus; assay: Displacement of [125I]alpha-bungarotoxin from rat nicotinic acetylcholine receptor at 3 uM by radioligand binding assay
[21] = biological target: Adenosine receptor A3 (Homo sapiens) (UniProt P0DMS8); assay: Inhibition of human adenosine A3 receptor at 3 uM by radioligand binding assay
[22] = biological target: Alpha-1B adrenergic receptor (Rattus norvegicus) (UniProt P15823); assay: Inhibition of rat alpha1B adrenergic receptor at 3 uM by radioligand binding assay
[23] = biological target: hERG (KCNH2) (Homo sapiens, UniProt Q12809); assay: Inhibition of human ERG channel at 3 uM by radioligand binding assay
[24] = biological target: Neuronal acetylcholine receptor; alpha4/beta2 (Rattus norvegicus) (UniProt P09483+P12390); assay: Displacement of [3H]cytisine from rat alpha4beta2 nAChR; assay type: protein-complex assay; settings: concentration not given here
[25] = Volume of distribution at steady state in monkey at 0.25 mg/kg, iv and 2.5 mg/kg, po; assay type: ADME, organism-based, Macaca mulatta; settings: rhesus monkey, in vivo, read-out: Vdss
[26] = Cmax in monkey at 0.25 mg/kg, iv and 2.5 mg/kg, po; assay type: ADME, organism-based, Macaca mulatta; settings: rhesus monkey, in vivo
[27] = biological target: Alpha-1A adrenergic receptor (Rattus norvegicus) (UniProt P43140); assay: Inhibition of rat alpha1A adrenergic receptor at 3 uM by radioligand binding assay
[28] = biological target: L-type calcium channel, benzothiazepine binding site (Rattus norvegicus, UniProt P22002+P27732+Q02485); assay: Inhibition of rat L-type calcium channel benzothiazepine binding site at 3 uM by radioligand binding assay; assay type: protein assay
[29] = biological target: 5-hydroxytryptamine receptor 1A (Homo sapiens) (UniProt P08908); assay: Inhibition of human 5-HT1A receptor at 3 uM by radioligand binding assay
[30] = species on record: Rattus norvegicus; assay: Inhibition of rat GABAA central type receptor muscimol binding site at 3 uM by radioligand binding assay
[31] = biological target: Mu-type opioid receptor (Homo sapiens) (UniProt P35372); assay: Inhibition of human mu opioid receptor at 3 uM by radioligand binding assay

Sequence of hERG (KCNH2) (Q12809 whole entry): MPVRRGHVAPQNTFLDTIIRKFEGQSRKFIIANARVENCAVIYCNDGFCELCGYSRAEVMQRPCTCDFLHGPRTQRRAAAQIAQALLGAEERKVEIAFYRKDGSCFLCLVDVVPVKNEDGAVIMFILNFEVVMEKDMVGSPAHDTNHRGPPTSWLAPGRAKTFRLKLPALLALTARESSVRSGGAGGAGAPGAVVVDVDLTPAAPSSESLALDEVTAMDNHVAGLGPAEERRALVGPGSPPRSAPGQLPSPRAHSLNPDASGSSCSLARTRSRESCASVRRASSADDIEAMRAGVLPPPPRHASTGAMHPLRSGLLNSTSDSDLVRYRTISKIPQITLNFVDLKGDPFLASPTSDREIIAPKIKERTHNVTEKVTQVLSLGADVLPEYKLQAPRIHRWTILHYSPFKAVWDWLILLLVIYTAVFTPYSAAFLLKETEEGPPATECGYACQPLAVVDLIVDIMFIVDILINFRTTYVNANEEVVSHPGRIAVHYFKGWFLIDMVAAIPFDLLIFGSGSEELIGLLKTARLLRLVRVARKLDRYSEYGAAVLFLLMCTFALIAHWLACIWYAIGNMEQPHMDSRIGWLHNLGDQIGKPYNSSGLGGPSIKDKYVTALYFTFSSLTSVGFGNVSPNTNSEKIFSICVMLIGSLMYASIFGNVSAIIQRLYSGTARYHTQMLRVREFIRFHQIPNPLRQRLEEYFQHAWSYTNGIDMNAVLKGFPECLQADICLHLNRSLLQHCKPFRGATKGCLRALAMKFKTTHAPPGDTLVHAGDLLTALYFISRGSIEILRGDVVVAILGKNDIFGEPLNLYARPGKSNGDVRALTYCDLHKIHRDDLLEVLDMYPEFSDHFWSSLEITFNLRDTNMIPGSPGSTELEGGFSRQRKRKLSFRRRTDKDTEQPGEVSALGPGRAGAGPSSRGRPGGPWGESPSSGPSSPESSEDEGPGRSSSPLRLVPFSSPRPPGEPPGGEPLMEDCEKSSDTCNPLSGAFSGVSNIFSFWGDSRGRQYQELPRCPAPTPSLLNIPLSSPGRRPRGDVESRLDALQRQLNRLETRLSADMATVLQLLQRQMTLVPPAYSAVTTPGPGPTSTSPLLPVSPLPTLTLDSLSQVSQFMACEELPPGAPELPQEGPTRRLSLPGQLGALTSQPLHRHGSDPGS
Sequence of Voltage-gated inwardly rectifying potassium channel KCNH2 (Q12809 whole entry): as above
Sequence of Neuronal acetylcholine receptor subunit alpha-7 (Rattus norvegicus) (Q05941 whole entry): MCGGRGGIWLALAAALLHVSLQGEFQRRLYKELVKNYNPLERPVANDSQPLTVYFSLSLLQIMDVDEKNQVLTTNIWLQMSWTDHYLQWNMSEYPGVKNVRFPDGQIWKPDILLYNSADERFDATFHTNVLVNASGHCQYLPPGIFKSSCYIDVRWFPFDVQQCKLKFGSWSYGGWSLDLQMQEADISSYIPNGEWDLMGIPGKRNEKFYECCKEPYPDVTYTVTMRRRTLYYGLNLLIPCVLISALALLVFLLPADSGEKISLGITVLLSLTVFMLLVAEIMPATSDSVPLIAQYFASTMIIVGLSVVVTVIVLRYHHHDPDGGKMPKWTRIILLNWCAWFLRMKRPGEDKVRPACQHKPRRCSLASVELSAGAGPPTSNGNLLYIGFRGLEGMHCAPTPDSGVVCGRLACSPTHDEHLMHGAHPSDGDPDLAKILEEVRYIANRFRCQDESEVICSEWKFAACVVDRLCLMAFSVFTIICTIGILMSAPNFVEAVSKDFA
Sequence of Glucocorticoid receptor (Homo sapiens) (P04150 whole entry): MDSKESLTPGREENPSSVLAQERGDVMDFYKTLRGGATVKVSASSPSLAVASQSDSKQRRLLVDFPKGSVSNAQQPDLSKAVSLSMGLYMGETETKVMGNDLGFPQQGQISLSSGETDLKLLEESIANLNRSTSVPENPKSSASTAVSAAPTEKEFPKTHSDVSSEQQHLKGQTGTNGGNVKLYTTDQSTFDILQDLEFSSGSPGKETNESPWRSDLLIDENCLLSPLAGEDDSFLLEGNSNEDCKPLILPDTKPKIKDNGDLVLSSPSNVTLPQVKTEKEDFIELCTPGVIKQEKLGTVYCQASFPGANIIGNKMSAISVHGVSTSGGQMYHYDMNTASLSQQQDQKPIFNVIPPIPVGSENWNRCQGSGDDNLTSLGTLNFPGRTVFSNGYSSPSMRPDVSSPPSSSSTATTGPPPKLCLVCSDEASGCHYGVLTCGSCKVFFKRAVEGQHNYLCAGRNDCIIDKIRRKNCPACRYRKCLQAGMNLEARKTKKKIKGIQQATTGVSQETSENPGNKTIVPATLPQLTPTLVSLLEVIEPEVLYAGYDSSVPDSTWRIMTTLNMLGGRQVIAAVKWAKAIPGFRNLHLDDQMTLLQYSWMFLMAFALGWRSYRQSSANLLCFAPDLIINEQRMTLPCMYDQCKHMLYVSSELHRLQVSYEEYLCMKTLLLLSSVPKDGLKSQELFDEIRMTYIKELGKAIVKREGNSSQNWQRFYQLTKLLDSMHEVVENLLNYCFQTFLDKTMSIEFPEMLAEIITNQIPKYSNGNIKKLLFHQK
Sequence of 5-hydroxytryptamine receptor 2B (Homo sapiens) (P41595 whole entry): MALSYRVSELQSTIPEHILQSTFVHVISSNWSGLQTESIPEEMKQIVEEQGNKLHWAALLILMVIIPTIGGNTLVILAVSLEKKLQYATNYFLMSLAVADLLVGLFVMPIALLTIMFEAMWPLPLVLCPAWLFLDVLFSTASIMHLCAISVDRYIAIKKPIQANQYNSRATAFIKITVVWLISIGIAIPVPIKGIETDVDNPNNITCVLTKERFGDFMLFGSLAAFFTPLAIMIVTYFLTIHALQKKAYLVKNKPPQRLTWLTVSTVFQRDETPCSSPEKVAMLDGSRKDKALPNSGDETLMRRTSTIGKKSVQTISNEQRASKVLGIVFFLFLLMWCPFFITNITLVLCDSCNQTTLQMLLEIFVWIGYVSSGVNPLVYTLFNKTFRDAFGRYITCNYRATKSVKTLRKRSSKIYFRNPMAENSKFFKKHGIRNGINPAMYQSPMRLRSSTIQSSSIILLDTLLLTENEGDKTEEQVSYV
Sequence of Somatostatin receptor type 4 (Homo sapiens) (P31391 whole entry): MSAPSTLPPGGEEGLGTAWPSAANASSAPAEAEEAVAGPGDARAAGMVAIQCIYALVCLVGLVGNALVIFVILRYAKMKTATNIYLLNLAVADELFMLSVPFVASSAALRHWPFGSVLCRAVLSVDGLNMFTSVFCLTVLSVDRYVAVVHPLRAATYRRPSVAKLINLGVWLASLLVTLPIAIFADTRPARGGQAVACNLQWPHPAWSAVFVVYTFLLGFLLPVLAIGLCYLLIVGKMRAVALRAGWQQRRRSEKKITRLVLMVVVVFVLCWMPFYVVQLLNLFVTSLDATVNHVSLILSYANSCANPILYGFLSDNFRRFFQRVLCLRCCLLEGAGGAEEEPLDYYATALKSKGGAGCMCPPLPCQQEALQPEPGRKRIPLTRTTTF
Sequence of Alpha-1B adrenergic receptor (Rattus norvegicus) (P15823 whole entry): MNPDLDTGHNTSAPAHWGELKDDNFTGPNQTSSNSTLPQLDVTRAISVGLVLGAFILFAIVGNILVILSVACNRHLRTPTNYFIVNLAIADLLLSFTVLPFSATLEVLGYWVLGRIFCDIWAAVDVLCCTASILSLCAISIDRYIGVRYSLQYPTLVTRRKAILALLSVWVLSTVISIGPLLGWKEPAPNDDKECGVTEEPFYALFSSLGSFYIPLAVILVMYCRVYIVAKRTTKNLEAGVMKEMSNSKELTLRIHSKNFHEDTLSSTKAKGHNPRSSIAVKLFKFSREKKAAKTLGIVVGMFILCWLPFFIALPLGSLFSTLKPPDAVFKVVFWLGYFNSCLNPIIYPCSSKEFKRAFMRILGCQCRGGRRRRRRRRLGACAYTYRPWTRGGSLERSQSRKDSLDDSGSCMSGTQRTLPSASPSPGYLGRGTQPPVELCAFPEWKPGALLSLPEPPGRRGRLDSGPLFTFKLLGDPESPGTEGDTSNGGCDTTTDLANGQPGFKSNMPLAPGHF

`CCOC(=O)N1CCC(CN2CCC3(CC2)CN(C(=O)N(C)C)c2ncccc23)CC1.O=C(O)/C=C/C(=O)O` showed an inhibition [1] of 4%, an inhibition at 3 µM [2] of 11% and an inhibition [3] of -10%. For the same compound, the inhibition [4] was 7%, the half-life [5] was 54 min and the Intrinsic activity [6] was 76%. It also gave an Activity [7] of 118%, an inhibition [8] of 13% and an ED50 [9] of 1.44 mg/kg. The inhibition [10] was -5%, the IC50 [11] was > 10000 nM and the Intrinsic activity [12] was 108%. For the same compound, the EC50 [13] was 133 nM, the inhibition [14] was 15% and the inhibition [15] was 4%. For the same compound, the inhibition [16] was 11%, the inhibition [17] was -2% and the inhibition [18] was 9%. For the same compound, the Activity [19] was 76%, the inhibition [20] was 7% and the inhibition [21] was -8%. The inhibition [22] was 9%, the inhibition at 3 µM [23] was 0% and the inhibition [24] was 11%. For the same compound, the Vd [25] was 2.3 L/kg, the Cmax [26] was 30.7 ng/mL and the inhibition [27] was 37%. It also gave an inhibition at 3 µM [28] of -21%, an inhibition [29] of -6% and an inhibition [30] of 2%. For the same compound, the inhibition [31] was 3%.
